Data reported in US20180311217A1, “METHODS OF TREATMENT AND COMPOSITIONS WITH XANTHINE OXIDASE INHIBITORS” (Takeda Pharmaceuticals U.S.A., Inc., priority 2013, published 2018).
Marks after values point to notes of the source that are not given here.

How the values were obtained:
[1] = test system: hyperuricemic gout subjects with moderate to severe renal impairment; test: Example 1 study: eGFR using the MDRD formula; type: in vivo, human; conditions: for change in eGFR over time: prior use of ACEi; for change in eGFR levels over time: prior use of ARB; for change in mean eGFR levels: subjects with moderate renal impairment
Method: Following the Study Day 1 Visit, subjects returned to the clinic for study visits at Day 14, Months 1, 3, 6, 9 and for a final visit at Month 12/ET Visit. […] Gout flare assessments were collected at each visit. Estimated GFR by Modification of Diet in Renal Disease (MDRD) calculation was performed by the Central Laboratory at all visits. Blood pressure (clinic with standardized instruments) was measured throughout the study. Adverse events, electrocardiograms (ECGs), clinical laboratory tests, and vital signs were collected at each visit.
The secondary efficacy variables for this study included change from baseline to Month 12 in eGFR using the MDRD formula; and percentage of subjects with sUA<6.0 mg/dL at Month 12.
An ANCOVA analysis similar to the primary analysis was used for analysis of eGFR. Subgroup analyses were also summarized for eGFR as for the primary endpoint.

[2] = test system: hyperuricemic gout subjects with moderate to severe renal impairment; test: Example 1 randomized double-blind 12 month study: serum urate (sUA); type: in vivo, human
Excerpt: Randomization was stratified at baseline using 3 strata: subjects taking an angiotensin receptor blocker (ARB), subjects taking an angiotensin converting enzyme inhibitors (ACEi), or subjects not taking an ARB or an ACEi. […] Serum samples for the analysis of sUA were collected as part of the standard chemistry panel at the time points stipulated in Schedule of Study Procedures (Table 1). All samples were collected in accordance with standard laboratory procedures. Serum urate concentrations were determined using the enzymatic method as performed by the Central Laboratory and were blinded to the Sponsor and investigative site beginning at Day 1 through the Month 12/ET visits. Missing data in all efficacy analyses was imputed with the last available postbaseline observation carrying forward (LOCF). A subject was included in the analysis of a specific efficacy variable only when there was both a baseline value and at least 1 value during the double-blind treatment period. […] The percentage of subjects with sUA<6 mg/dL at Month 12 was summarized by treatment group, and the treatment groups were compared by a CMH test with prior use of an ARB or ACEi as a stratification variable. In addition, change from baseline and percent change from Baseline in sUA were summarized by visit and by treatment.

[3] = 30 mg BID, Month 12, listed as febuxostat
[4] = 40/80 mg QD, Month 12, listed as febuxostat

## Cc1nc(-c2ccc(OCC(C)C)c(C#N)c2)sc1C(=O)O [Febuxostat, 2-[3-cyano-4-(2-methylpropoxy)phenyl]-4-methylthiazole-5-carboxylic acid]
[1]; 30 mg BID, Day 14
  eGFR using MDRD formula, Change from Baseline: −0.99 mL/min/1.73 m^2
  eGFR using MDRD formula, Mean (SD): 33.25 (8.042) mL/min/1.73 m^2
[1]; 30 mg BID, Month 1
  eGFR using MDRD formula, Change from Baseline: −1.48 mL/min/1.73 m^2
  eGFR using MDRD formula, Mean (SD): 32.99 (8.305) mL/min/1.73 m^2
[1]; 30 mg BID, Month 3
  eGFR using MDRD formula, Change from Baseline: −0.72 mL/min/1.73 m^2
  eGFR using MDRD formula, Mean (SD): 33.52 (9.005) mL/min/1.73 m^2
[1]; 30 mg BID, Month 6
  eGFR Change from Baseline, LS mean (SE): 0.03 (0.955) mL/min/1.73 m^2
  eGFR Change from Baseline, LS mean difference (SE) from placebo group: 1.74 (1.374) mL/min/1.73 m^2
  eGFR using MDRD formula, Change from Baseline: −0.06 mL/min/1.73 m^2
  eGFR using MDRD formula, Mean (SD): 34.18 (8.004) mL/min/1.73 m^2
[1]; 30 mg BID, Month 9
  eGFR using MDRD formula, Change from Baseline: −0.91 mL/min/1.73 m^2
  eGFR using MDRD formula, Mean (SD): 33.33 (9.468) mL/min/1.73 m^2
[1]; 30 mg BID, Month 12
  eGFR Change from Baseline, LS mean (SE): 0.33 (1.172) mL/min/1.73 m^2
  eGFR Change from Baseline, LS mean difference (SE) from placebo group: 2.38 (1.687) mL/min/1.73 m^2
  eGFR using MDRD formula, Change from Baseline: 0.32 mL/min/1.73 m^2
  eGFR using MDRD formula, Mean (SD): 34.56 (9.382) mL/min/1.73 m^2
  change in mean eGFR levels: small improvement
[1]; [3]
  eGFR Change from Baseline, LS mean (SE): 0.33 mL/min/1.73 m^2
[1]; 30 mg BID
  change in eGFR over time: slight improvements
  change in eGFR levels over time: modest improvements
[1]; 30 mg BID, sUA of 9.0 to <10.0 mg/dL at Baseline
  change in eGFR over time compared with placebo: small favorable trend
[1]; 30 mg BID, sUA≥10.0 mg/dL at Baseline
  change in eGFR over time compared with placebo: small trend was apparent
[1]; 30 mg BID, serum creatinine 2.0 to <2.5 mg/dL at Baseline
  change in eGFR over time compared with placebo: small favorable trend
[1]; 40/80 mg QD, Day 14
  eGFR using MDRD formula, Change from Baseline: −0.52 mL/min/1.73 m^2
  eGFR using MDRD formula, Mean (SD): 33.87 (10.259) mL/min/1.73 m^2
[1]; 40/80 mg QD, Month 1
  eGFR using MDRD formula, Change from Baseline: −0.29 mL/min/1.73 m^2
  eGFR using MDRD formula, Mean (SD): 33.91 (10.482) mL/min/1.73 m^2
[1]; 40/80 mg QD, Month 3
  eGFR using MDRD formula, Change from Baseline: 0.14 mL/min/1.73 m^2
  eGFR using MDRD formula, Mean (SD): 34.34 (10.474) mL/min/1.73 m^2
[1]; 40/80 mg QD, Month 6
  eGFR Change from Baseline, LS mean (SE): 0.04 (0.969) mL/min/1.73 m^2
  eGFR Change from Baseline, LS mean difference (SE) from placebo group: 1.75 (1.383) mL/min/1.73 m^2
  eGFR using MDRD formula, Change from Baseline: −0.03 mL/min/1.73 m^2
  eGFR using MDRD formula, Mean (SD): 34.18 (11.067) mL/min/1.73 m^2
[1]; 40/80 mg QD, Month 9
  eGFR using MDRD formula, Change from Baseline: 1.18 mL/min/1.73 m^2
  eGFR using MDRD formula, Mean (SD): 35.39 (10.930) mL/min/1.73 m^2
[1]; 40/80 mg QD, Month 12
  eGFR Change from Baseline, LS mean (SE): −0.86 (0.190) mL/min/1.73 m^2
  eGFR Change from Baseline, LS mean difference (SE) from placebo group: 1.19 (1.698) mL/min/1.73 m^2
  eGFR using MDRD formula, Change from Baseline: −0.82 mL/min/1.73 m^2
  eGFR using MDRD formula, Mean (SD): 33.38 (11.949) mL/min/1.73 m^2
[1]; [4]
  eGFR Change from Baseline, LS mean (SE): −0.086 mL/min/1.73 m^2
[1]; 40/80 mg QD
  change in eGFR over time: slight improvements
[1]; 40/80 mg QD, sUA of 9.0 to <10.0 mg/dL at Baseline
  change in eGFR over time compared with placebo: small favorable trend
[1]; 40/80 mg QD, serum creatinine 2.0 to <2.5 mg/dL at Baseline
  change in eGFR over time compared with placebo: small favorable trend
[1]; 40/80 mg
  change in eGFR levels over time: moderate to large decreases
[1]; 40/80 mg, Month 12
  change in mean eGFR levels: small decreases
[2]; 30 mg BID, Day 14
  Percentage of Subjects with sUA < 6.0 mg/dL: 71.9 (23/32) %
[2]; 30 mg BID, Month 1
  Percentage of Subjects with sUA < 6.0 mg/dL: 71.9 (23/32) %
[2]; 30 mg BID, Month 3
  Percentage of Subjects with sUA < 6.0 mg/dL: 78.1 (25/32) %
[2]; 30 mg BID, Month 6
  Percentage of Subjects with sUA < 6.0 mg/dL: 65.6 (21/32)* %
  Serum urate change from Baseline, LS mean (SE): −5.08 (0.304) mg/dL
  Serum urate change from Baseline, LS mean difference (SE) from placebo group: −5.15 (0.428) mg/dL
[2]; 30 mg BID, Month 9
  Percentage of Subjects with sUA < 6.0 mg/dL: 68.8 (22/32) %
[2]; 30 mg BID, Month 12
  Percentage of Subjects with sUA < 6.0 mg/dL: 68.8 (22/32)* %
  Serum urate change from Baseline, LS mean (SE): −4.97 (0.318) mg/dL
  Serum urate change from Baseline, LS mean difference (SE) from placebo group: −4.82 (0.447) mg/dL
[2]; [3]
  Serum urate change from Baseline, LS mean (SE): -4.97 mg/dL
[2]; 40/80 mg QD, Day 14
  Percentage of Subjects with sUA < 6.0 mg/dL: 33.3 (10/30) %
[2]; 40/80 mg QD, Month 1
  Percentage of Subjects with sUA < 6.0 mg/dL: 35.5 (11/31) %
[2]; 40/80 mg QD, Month 3
  Percentage of Subjects with sUA < 6.0 mg/dL: 58.1 (18/31) %
[2]; 40/80 mg QD, Month 6
  Percentage of Subjects with sUA < 6.0 mg/dL: 51.6 (16/31)* %
  Serum urate change from Baseline, LS mean (SE): −4.29 (0.309) mg/dL
  Serum urate change from Baseline, LS mean difference (SE) from placebo group: −4.36 (0.431) mg/dL
[2]; 40/80 mg QD, Month 9
  Percentage of Subjects with sUA < 6.0 mg/dL: 58.1 (18/31) %
[2]; 40/80 mg QD, Month 12
  Percentage of Subjects with sUA < 6.0 mg/dL: 45.2 (14/31)* %
  Serum urate change from Baseline, LS mean (SE): −4.17 (0.323) mg/dL
  Serum urate change from Baseline, LS mean difference (SE) from placebo group: −4.02 (0.451) mg/dL
[2]; [4]
  Serum urate change from Baseline, LS mean (SE): -4.17 mg/dL
